The values below come from patent publication US20140335083A1, “METHODS OF TREATMENT AND PREVENTION OF EYE DISEASES” (GLAXO GROUP LIMITED, priority 2011, published 2014).

What all share (type): in vivo
In one data set the target is T1, CCR3 (Mus musculus, UniProt P51678).
T1 construct: endogenous in cells; host or cells: juvenile mice in vivo; CCR3-bearing cells, mainly eosinophils
T1 sequence (P51678 1-359): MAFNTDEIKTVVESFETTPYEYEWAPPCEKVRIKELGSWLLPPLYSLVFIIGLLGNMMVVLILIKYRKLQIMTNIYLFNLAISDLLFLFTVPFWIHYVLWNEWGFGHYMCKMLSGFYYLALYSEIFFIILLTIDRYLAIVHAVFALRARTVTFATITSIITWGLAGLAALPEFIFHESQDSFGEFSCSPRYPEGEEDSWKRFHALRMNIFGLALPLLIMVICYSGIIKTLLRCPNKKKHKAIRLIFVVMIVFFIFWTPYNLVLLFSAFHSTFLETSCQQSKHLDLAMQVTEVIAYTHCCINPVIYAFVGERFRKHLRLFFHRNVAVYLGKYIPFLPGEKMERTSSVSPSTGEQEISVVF
Description: Fractional CCR3 receptor occupancy calculated from blood concentrations in juvenile mice. On the procedure:
Following dosing of 8 mg/kg i.p QD CCR3 inhibitor '994 in juvenile mice to mimic exposure effects in JR5558 mice, blood concentration at 24 hrs was calculated for 2 mg/kg i.p, 8 mg.kg i.p and 30 mg/kg i.p. doses by projecting the log linear phase of the PK profile. Blood drug concentrations were then used to determine fractional receptor occupancy using the Langmuir binding isotherm and the pKi for CCR3 inhibitor '994 (estimated in a mouse eosinophil chemotaxis assay). The receptor occupancy values are small over estimates of the true value as the pKi for CCR3 inhibitor '994 was determined in buffer and not blood. The fractional CCR3 receptor occupancy will largely be due to binding to eosinophils as this is the predominant CCR3 bearing cell population. […] This same group also used very small doses of anti-CCR3 antibodies dosed by intravitreal injection to limit laser-induced CNV in mouse models and these very small doses would have very limited impact of fractional receptor occupancy even if they were able to access the systemic circulation. In addition, topical dosing of CCR3 inhibitor '994 as an eye drop formulation was also efficacious in the JR5558 model. […] It is highly likely however that systemic dosing drives exposure of CCR3 antagonist in the eye and ultimately the effect on disease and the exposure in the eye is likely to be a complex function of the systemic exposure and thus an understanding of the systemic pharmacokinetics driving efficacy may be important in profiling systemic therapies.

Data set [1] is described as follows: Exposure after oral versus i.p. dosing in mice. Particulars: mouse; oral v i.p.
For data set [2], the system named is spontaneous CNV in JR5558 mice. Description: JR5558 spontaneous CNV model, CNV area and number by fluorescein angiography. On the procedure: JR5558 mice develop CNV (on an atrophic background) spontaneously with CNV lesions first emerging approximately 12 days after birth. JR5558 mice were intraperitoneally treated with various amounts of a rat anti-mouse VEGF receptor (VEGFR)-2 blocking antibody (MAB4431; R&D systems) or a purified rat non-immune isotype match control IgG2α antibody (R&D systems) starting from P14 for a total of 10 doses in 11 days and CNV development was analyzed by fluorescein angiography (FA) 24 hours after the last dose on P25. For Mice treated with CCR3 inhibitor '994 they were dosed intraperitoneally or by eye drop with various concentrations of the drug starting at P14 for a total of 12 days and CNV development was analyzed by FA 24 hours after the last dose on P26. To study the combination effects of anti-VEGFR2 antibody and CCR3 inhibitor '994, mice were treated intraperitoneally with each material alone or in combination starting from P14 for a total of 10 doses in 11 days and CNV development was analyzed by FA 24 hours after the last dose on P25. Experiments exploring the effects of VEGF-A and CCR3 antagonists on vascular permeability from established CNV lesions, JR5558 mice utilised dosing for only two days after the development of CNV lesions and were treated with various amounts of the VEGFR-2 antibody or CCR3 inhibitor '994, or in combinations on P24 and P25. Fluorescein Angiography (FA) was performed on P26.
The pupils of mice were dilated with 2.5% tropicamide (Bausch & Lomb, Rochester, N.Y.) and 0.2 ml of 2% fluorescein sodium (Bausch & Lomb) diluted in water was administered by intraperitoneal injection. A Kowa Genesis-Df fundus camera (Kowa, Tokyo, Japan) was used to obtain fluorescein angiograms at early (90 seconds after fluorescein injection) and late (7 min) phases of dye transit. At the early phase, the vasculature of CNV tissue is clearly defined by the intravascular fluorescein dye. At the late phase, extravascular fluorescein is evident as patches of hyperfluorescence. To quantify the CNV area, Image J program was used to determine the size of each of the hyperfluorescence CNV in each eye with FA images from the early phase. Permeability of each CNV was determined by subtracting the hyper-fluorescent area of early phase (90 second post fluorescein injection) from late phase (7 minutes post fluorescein injection) FA images by using Image J.
JR5558 mice are a strain of mice with an unidentified genetic defect which causes them to develop spontaneous CNV in both retinae with a predictable time course with the first lesions initiating at about post-natal day 12. As such treatment with CCR3 inhibitor '994 was initiated at day 12 and continued for 12 days at which point animals were examined by retinal fluorescence angiography to quantitate the total CNV lesion load and the total number of CNV lesions present in the retinae. Treatment of animals with CCR3 inhibitor '994 led to suppression of both total lesion area (see, FIG. 3, Table 3) and in the total number of CNV lesions present in the retinae (see, FIG. 3, Table 4) when dosed i.p. at either 8 mg/kg QD or 30 mg/kg QD but not when the dose was 2 mg/kg QD.

The mark [3] stands for this setting: 2 mg/kg i.p. QD v Vehicle, 12 days P14-P26, fluorescence angiography.
[4] abbreviates: 8 mg/kg i.p. QD v Vehicle, 12 days P14-P26, fluorescence angiography.
The mark [5] stands for this setting: 30 mg/kg i.p. QD v Vehicle, 12 days P14-P26, fluorescence angiography.
The mark [6] stands for this setting: eye drop study, 1 mg/ml, 5 ul eye drop to each eye BID v Vehicle, P14-P26.
The mark [7] stands for this setting: eye drop study, 8 mg/kg i.p. BID comparator v Vehicle, P14-P26.
Where [8] appears, read: eye drop study, 10 mg/ml, 5 ul eye drop to each eye BID v Vehicle, P14-P26.

For `NC(=O)c1ccc(CNC(=O)NC[C@H]2CN(Cc3ccc(Cl)c(Cl)c3)CCO2)cc1` [CCR3 inhibitor '994, 4-[[[[[[(2s)-4-[(3,4-dichlorophenyl)methyl]-2-morpholinyl]methyl]-amino]carbonyl]-amino]methyl]benzamide], the “fractional CCR3 receptor occupancy” value at CCR3 (2 mg/kg i.p., 24 h trough) is reported as 3.1%; on CCR3 (2 mg/kg i.p., at 8 hours) it was 97.95%; at CCR3 (8 mg/kg i.p., 24 h trough), 11.36%; on CCR3 (8 mg/kg i.p., at 8 hours), 99.48%; at CCR3 (30 mg/kg i.p., 24 h trough), 32.45; on CCR3 (30 mg/kg i.p., at 8 hours) it was 99.86%. Moreover, in data set [1], the “reduction in exposure, oral dosing as compared to i.p dosing” value was 5 fold. Also, the “Difference in mean total CNV area per eye” value in data set [2] (setting [3]) was −0.0065; in data set [2] (setting [4]) it was −0.0171; in data set [2] (setting [5]), −0.0264; in data set [2] (BID study (Table 5), 8 mg/kg BID v Vehicle, 12 days P14-P26, fluorescence angiography), −0.0214; in data set [2] (setting [6]), −5442.63; in data set [2] (setting [7]), −9853.26. The “Difference in mean total CNV area per eye” value in data set [2] (setting [8]) was −8047.55. Besides, the “Difference in mean total number of CNV lesions per eye” value is −1.65 in data set [2] (setting [3]); −5.03 in data set [2] (setting [4]); −5.20 in data set [2] (setting [5]); −2.25 in data set [2] (setting [6]); 4.95 in data set [2] (setting [7]); −3.96 in data set [2] (setting [8]). Also, in data set [2] (BID study (Table 6), 8 mg/kg BID v Vehicle, 12 days P14-P26, fluorescence angiography), the “Difference in mean number of CNV lesions per eye” value is reported as −4.63. Moreover, the “effect on CNV lesion area and total occurring CNV lesions” value in data set [2] (combination study, 30 mg/kg QD systemic, compared to vehicle) is “significant reduction in both CNV lesion area and total occurring CNV lesions”.
